The source made the active and inactive calls.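 The calls were made as follows: active = any compound with an IC50 of 100 nM or lower; inactive = the rest.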
Target: Insulin-degrading enzyme (Homo sapiens) (UniProt P14735)
Experiment: IDE catalytic activity blockers, fluorogenic substrate – biochemical, kinetic mode, counter-screen for IDE exo-site inhibitor project, dose response (AID 1259348);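 as to z-score: purified IDE bound to fluorescein-labelled 6b probe FL-6b at the exo-site; probe displacement lowers polarization so hits show a drop in FP signal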
Conditions: purified human IDE, fluorogenic decapeptide proteolysis; for z-score: measured here: primary FP probe displacement screen, stronger effect = lower value

Insulin-degrading enzyme (Homo sapiens), sequence (P14735 42-1019 limits assumed): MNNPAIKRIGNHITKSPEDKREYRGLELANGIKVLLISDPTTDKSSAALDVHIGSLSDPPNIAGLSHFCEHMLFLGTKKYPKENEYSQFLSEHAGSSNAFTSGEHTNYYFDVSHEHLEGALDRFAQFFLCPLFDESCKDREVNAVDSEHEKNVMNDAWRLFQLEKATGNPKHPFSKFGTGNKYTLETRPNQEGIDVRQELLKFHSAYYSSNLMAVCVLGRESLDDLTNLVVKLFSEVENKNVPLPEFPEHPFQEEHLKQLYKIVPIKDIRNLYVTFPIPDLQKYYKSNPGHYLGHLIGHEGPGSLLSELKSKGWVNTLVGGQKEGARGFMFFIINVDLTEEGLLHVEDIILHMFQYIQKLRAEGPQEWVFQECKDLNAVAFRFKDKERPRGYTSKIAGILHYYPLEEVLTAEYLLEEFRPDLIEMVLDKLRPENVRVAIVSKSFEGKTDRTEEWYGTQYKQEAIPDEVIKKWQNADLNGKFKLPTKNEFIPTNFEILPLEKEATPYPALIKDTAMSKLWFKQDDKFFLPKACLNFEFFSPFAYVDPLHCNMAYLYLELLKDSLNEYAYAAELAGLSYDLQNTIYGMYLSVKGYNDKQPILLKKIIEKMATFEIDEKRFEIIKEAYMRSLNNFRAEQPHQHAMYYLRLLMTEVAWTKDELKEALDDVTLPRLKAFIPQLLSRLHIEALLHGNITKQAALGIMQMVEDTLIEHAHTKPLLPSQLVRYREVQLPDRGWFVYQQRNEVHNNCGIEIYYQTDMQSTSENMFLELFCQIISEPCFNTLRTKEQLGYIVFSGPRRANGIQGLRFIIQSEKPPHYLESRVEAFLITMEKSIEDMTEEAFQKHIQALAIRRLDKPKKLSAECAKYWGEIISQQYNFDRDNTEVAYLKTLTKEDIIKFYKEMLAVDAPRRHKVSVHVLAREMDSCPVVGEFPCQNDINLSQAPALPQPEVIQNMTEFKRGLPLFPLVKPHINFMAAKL

Cc1ccccc1-c1ccc([C@H]2[C@@H](CO)N3CCCCN(C(=O)Nc4cccc(F)c4)C[C@@H]23)cc1
IC50: 3.8 µM
z-score: -4.36

COc1ccccc1-c1ccc(C2[C@@H]3CN(C(=O)c4cccnc4)C[C@H]2N3)cc1 (stereo partly drawn)
IC50: 7.1 µM
z-score: -13.8

O=C(c1ccccn1)N1CC(=O)N2[C@@H](CO)[C@@H](c3ccc(C#Cc4ccccc4)cc3)[C@@H]2C1
IC50: 5.2 µM
z-score: -19.9

Cc1cccc(-c2ccc([C@@H]3[C@@H](CO)N4CCCCN(C(=O)c5cccnc5)C[C@@H]34)cc2)c1
IC50: > 100 µM (inactive)
z-score: -3.25

Cc1ccccc1-c1ccc([C@H]2[C@@H](CO)N3CCCCN(CC4CC4)C[C@@H]23)cc1
IC50: 45 µM
z-score: -3.48

COc1ccccc1-c1ccc([C@H]2[C@@H](CO)N(C(=O)NC(C)C)[C@H]2C#N)cc1
IC50: 20 µM
z-score: -16.3

CCCNC(=O)N1CC(=O)N2[C@@H](CO)[C@H](c3ccc(-c4cccc(C)c4)cc3)[C@@H]2C1
IC50: 2.4 µM
z-score: -15.8

Cc1cccc(-c2ccc([C@@H]3[C@@H](CO)N4CCCCN(S(=O)(=O)c5cccs5)C[C@@H]34)cc2)c1
IC50: 0.8 µM
z-score: -3.77

Cc1cccc(-c2ccc([C@@H]3[C@H](CO)N4CCCCN(S(=O)(=O)c5ccccc5F)C[C@@H]34)cc2)c1
IC50: 0.55 µM
z-score: -22.1

Cc1ccccc1-c1ccc([C@@H]2[C@H]3CN(S(=O)(=O)c4cn(C)cn4)CCCCN3[C@H]2CO)cc1
IC50: 1.7 µM
z-score: -18.5

Cc1cccc(-c2ccc([C@@H]3[C@@H](CO)N4CCCCN(Cc5cncnc5)C[C@@H]34)cc2)c1
IC50: 11.9 µM
z-score: -6.65

Cc1ccccc1-c1ccc([C@H]2[C@@H](CO)N3C(=O)CN(C(=O)Cc4ccccn4)C[C@@H]23)cc1
IC50: 3.2 µM
z-score: -17.3

Cc1ccccc1-c1ccc([C@H]2[C@H](CO)N3C(=O)CN(C(=O)c4cccnc4)C[C@@H]23)cc1
IC50: 6.1 µM
z-score: -12.4

O=C(NC1CCCC1)N1CC(=O)N2[C@H](CO)[C@@H](c3ccc(-c4cccnc4)cc3)[C@@H]2C1
IC50: 14 µM
z-score: -12.2

Cc1cccc(-c2ccc([C@@H]3[C@H]4CN(C(=O)c5cccnc5)CCCCN4[C@H]3CO)cc2)c1
IC50: 6.6 µM
z-score: -15.2

COc1ccccc1-c1ccc([C@H]2[C@@H](CO)N[C@@H]2CNC(=O)C2CCCC2)cc1
IC50: 5.1 µM
z-score: -10.9

CCC(=O)N1[C@H](CO)[C@H](c2ccc(-c3ccccc3OC)cc2)[C@@H]1CNC(C)=O
IC50: 5.8 µM
z-score: -15

OC[C@H]1[C@@H](c2ccc(C#Cc3ccccc3)cc2)[C@@H]2CN(Cc3cncnc3)CCCCN12
IC50: 4.3 µM
z-score: -16.2

Cc1ccccc1-c1ccc([C@H]2[C@@H](CO)N3CCCCN(S(=O)(=O)c4ccc(F)cc4)C[C@@H]23)cc1
IC50: 85 µM
z-score: 3.66

Cc1ccccc1-c1ccc([C@H]2[C@@H](CO)N3CCCCN(S(=O)(=O)c4cn(C)cn4)C[C@H]23)cc1
IC50: 2.2 µM
z-score: -16.6

Cc1cccc(-c2ccc([C@@H]3[C@H](CO)N4CCCCN(S(=O)(=O)c5cn(C)cn5)C[C@@H]34)cc2)c1
IC50: 2.1 µM
z-score: -19.5

Cc1ccccc1-c1ccc([C@@H]2[C@@H](CO)N3CCCCN(S(C)(=O)=O)C[C@@H]23)cc1
IC50: 1.3 µM
z-score: -17.9

Cc1ccccc1-c1ccc([C@H]2[C@@H](CO)N3CCCCN(S(=O)(=O)c4cn(C)cn4)C[C@@H]23)cc1
IC50: > 100 µM (inactive)
z-score: -3.44

COCC(=O)N1CCCCN2[C@H](CO)[C@@H](c3ccc(-c4cccc(C)c4)cc3)[C@@H]2C1
IC50: 16 µM
z-score: -5.29

Cc1ccccc1-c1ccc([C@H]2[C@@H](CO)N3CCCCN(C(=O)CN4CCOCC4)C[C@@H]23)cc1
IC50: 25 µM
z-score: 0.13

COc1cccc(C#Cc2ccc([C@@H]3[C@H](CO)N4C(=O)CN(C(C)=O)C[C@@H]34)cc2)c1
IC50: 3.7 µM
z-score: -15.3

COc1ccccc1-c1ccc([C@@H]2[C@@H](C#N)N(C(=O)CN(C)C)[C@H]2CO)cc1
IC50: 5.2 µM
z-score: -12.4

Cc1cccc(-c2ccc([C@@H]3[C@@H](CO)N4CCCCN(S(=O)(=O)c5ccccc5C)C[C@@H]34)cc2)c1
IC50: 0.1 µM
z-score: -20.3

COc1ccccc1-c1ccc([C@H]2[C@H](C#N)N[C@@H]2CO)cc1
IC50: 6.3 µM
z-score: -12

Cc1ccccc1-c1ccc([C@@H]2[C@@H](CO)N3CCCCN(C(=O)c4cccnc4)C[C@@H]23)cc1
IC50: 13 µM
z-score: -7.98

Cc1cccc(-c2ccc([C@H]3[C@@H](CO)N4CCCCN(Cc5cccnc5)C[C@H]34)cc2)c1
IC50: 10.7 µM
z-score: -6.79

Cc1cccc(-c2ccc([C@H]3[C@@H](CO)N4CCCCN(C(=O)c5cccnc5)C[C@H]34)cc2)c1
IC50: 3.4 µM
z-score: -17

O=C(c1ccncc1)N1C[C@@H]2N[C@H](C1)C2c1ccc(/C=C/c2ccccc2)cc1 (stereo partly drawn)
IC50: 8.8 µM
z-score: -13.8

Cc1cccc(-c2ccc([C@@H]3[C@@H](CO)N4C(=O)CN(C(=O)NC5CCCCC5)C[C@@H]34)cc2)c1
IC50: 0.67 µM
z-score: -16.6

CC(C)NC(=O)N1CCCCN2[C@@H](CO)[C@H](c3ccc(C#Cc4ccccc4F)cc3)[C@@H]2C1
IC50: 1.2 µM
z-score: -12.7

CCCNC(=O)N1CC(=O)N2[C@H](CO)[C@@H](c3ccc(-c4cccc(C)c4)cc3)[C@@H]2C1
IC50: 0.77 µM
z-score: -22.4

Cc1ccccc1-c1ccc([C@@H]2[C@H](CO)N3C(=O)CN(C(=O)NC4CCCC4)C[C@@H]23)cc1
IC50: 3.6 µM
z-score: -8.13

O=C(NC1CCCC1)N1CCCCN2[C@H](C1)[C@H](c1ccc(/C=C/c3ccccc3)cc1)[C@@H]2CO
IC50: 11.5 µM
z-score: -13.2

CO[C@@H]1CN(C)C(=O)c2cc(NC(=O)c3ccc(Oc4ccccc4)cc3)ccc2OC[C@@H](C)NC[C@@H]1C
IC50: 2.4 µM
z-score: -11.5

Cc1ccccc1-c1ccc([C@@H]2[C@H]3CN(C(=O)c4ccncc4)CC(=O)N3[C@H]2CO)cc1
IC50: 4.2 µM
z-score: -13.6

Cc1ccccc1-c1ccc([C@H]2[C@H](CO)N3C(=O)CN(C(=O)Nc4cccc(F)c4)C[C@@H]23)cc1
IC50: 4 µM
z-score: -3.03

Cc1ccccc1-c1ccc(C2[C@@H]3CN(C(=O)C4CCOCC4)C[C@H]2N3)cc1 (stereo partly drawn)
IC50: 2.2 µM
z-score: -7.71

Cc1ccccc1-c1ccc([C@@H]2[C@@H](CO)N3CCCCN(C(=O)Cc4ccccn4)C[C@@H]23)cc1
IC50: 11.5 µM
z-score: -9.54

Cc1cccc(-c2ccc([C@@H]3[C@@H](CO)N4CCCCN(C(=O)c5ccncc5)C[C@@H]34)cc2)c1
IC50: 16.5 µM
z-score: -3.14

O=C(NC1CCCC1)N1CCCCN2[C@@H](CO)[C@H](c3ccc(/C=C/c4ccccc4)cc3)[C@@H]2C1
IC50: 0.88 µM
z-score: -14.8

COc1cccc(-c2ccc([C@@H]3[C@@H](CO)N4CCCCN(CC5CCOCC5)C[C@@H]34)cc2)c1
IC50: 30 µM

Cc1ccccc1-c1ccc([C@H]2[C@@H](CO)N3CCCCN(C(=O)c4cccnc4)C[C@@H]23)cc1
IC50: 12.5 µM
z-score: -4.79

Cc1ccccc1-c1ccc([C@@H]2[C@@H](CO)N3C(=O)CN(C(=O)Cc4ccccn4)C[C@@H]23)cc1
IC50: 2.7 µM
z-score: -19.9

Cc1ccccc1-c1ccc([C@@H]2[C@H]3CN(C(=O)c4cccnc4)CC(=O)N3[C@H]2CO)cc1
IC50: 2.6 µM
z-score: -19.7

Cc1cccc(-c2ccc([C@@H]3[C@H]4CN(C(=O)c5cccnc5)CC(=O)N4[C@H]3CO)cc2)c1
IC50: 4.2 µM
z-score: -17.7

Cc1ccccc1-c1ccc(C2[C@@H]3CN(C(=O)Cc4ccncc4)C[C@H]2N3)cc1 (stereo partly drawn)
IC50: 2.2 µM
z-score: -9.03

Cc1ccccc1-c1ccc([C@H]2[C@@H](CO)N3CCCCN(S(C)(=O)=O)C[C@@H]23)cc1
IC50: > 100 µM (inactive)
z-score: -2.31

CC(=O)N1CCCCN2[C@H](CO)[C@@H](c3ccc(-c4cccc(C)c4)cc3)[C@@H]2C1
IC50: 16.5 µM
z-score: -3.48

COc1ccccc1C#Cc1ccc([C@H]2[C@H](CO)N3CCCCN(C(=O)C4CCC4)C[C@@H]23)cc1
IC50: 2.7 µM
z-score: -12.3

CO[C@H]1CN(C)C(=O)c2cc(NC(=O)c3ccc(Oc4ccccc4)cc3)ccc2OC[C@@H](C)NC[C@@H]1C
IC50: 2.9 µM
z-score: -13.2

Cc1ccccc1-c1ccc([C@H]2[C@@H](CO)N3CCCCN(Cc4cccnc4)C[C@H]23)cc1
IC50: 4.8 µM
z-score: -11.4

Cc1cccc(-c2ccc([C@@H]3[C@@H](CO)N4CCCCN(C(=O)NC(C)C)C[C@@H]34)cc2)c1
IC50: 6.2 µM
z-score: -5.51

Cc1ccccc1-c1ccc([C@H]2[C@H](CO)N3C(=O)CN(C(=O)NC4CCCC4)C[C@@H]23)cc1
IC50: 0.37 µM
z-score: -20.8

O=C(C1CCOCC1)N1CC(=O)N2[C@H](CO)[C@H](c3ccc(C#Cc4cccc(F)c4)cc3)[C@H]2C1
IC50: 5.3 µM
z-score: -19.3

COc1ccccc1C#Cc1ccc([C@H]2[C@H]3CN(C(=O)C4CCC4)CCCCN3[C@H]2CO)cc1
IC50: > 100 µM (inactive)
z-score: -17.5

Cc1ccccc1-c1ccc([C@@H]2[C@H](CO)N3CCCCN(C(=O)NC4CCCC4)C[C@@H]23)cc1
IC50: 1.55 µM
z-score: -19

COc1cccc(C#Cc2ccc([C@@H]3[C@H](CO)N4C(=O)CN(C(=O)Cc5cccnc5)C[C@@H]34)cc2)c1
IC50: 6.2 µM
z-score: -4.12

CCS(=O)(=O)N1CCCCN2[C@@H](CO)[C@@H](c3ccc(C#Cc4ccccc4OC)cc3)[C@@H]2C1
IC50: 1.8 µM
z-score: -19.7

Cc1ccccc1-c1ccc([C@H]2[C@H](CO)N3C(=O)CN(S(C)(=O)=O)C[C@@H]23)cc1
IC50: 17.5 µM
z-score: -1.37

OC[C@H]1[C@@H](c2ccc(C#Cc3ccccc3F)cc2)[C@@H]2CN(Cc3cncnc3)CCCCN12
IC50: 5.2 µM
z-score: -15.1

Cc1ccccc1-c1ccc(C2[C@@H]3CN(Cc4cocn4)C[C@H]2N3)cc1 (stereo partly drawn)
IC50: 6.7 µM
z-score: -3.01

Cc1ccccc1-c1ccc([C@H]2[C@@H](CO)N3CCCCN(S(=O)(=O)Cc4ccccc4)C[C@@H]23)cc1
IC50: 44 µM
z-score: -1.65

Source: PubChem BioAssay AID1259348 (Broad Institute, 2017)
